{"source": "paper PMC12152147", "about": "“DDB1 engagement defines the selectivity of S656 analogs for cyclin K degradation over CDK inhibition” (EMBO Reports, 2025)", "key": {"[1]": {"tested_on": "OCI-AML5 cells proteome", "test": "Whole-proteome mass spectrometry analysis", "format": "cell-based, H. sapiens", "details": "OCI-AML5, 5 hours, 8 μM S656", "description": "Whole proteome was performed as previously described (Moison et al, [2024]). We treated 10 million OCI-AML5 cells in triplicate with DMSO or 8 μM S656 for 5 h. Collected cells were washed in PBS and cell pellets lysed in Triton X-100 buffer (10 mM PIPES pH 7.4, 0.5% Triton X-100, 300 mM Sucrose, 100 mM NaCl, 3 mM MgCl2, 0.5 mM EDTA + protease inhibitors). Following MS analysis, the data were processed using PEAKS X Pro (Bioinformatics Solutions, Waterloo, ON) and a Uniprot human database (20366 entries) with trypsin as the enzyme. Differential Enrichment analysis of Proteomics data (DEP) package (Zhang et al, [2018]) in R was used to analyze the data (excluding proteins identified based on a single peptide), including data filtering, normalization, imputation of missing values and statistical testing of differentially expressed proteins."}, "[2]": {"tested_on": "OCI-AML5 cells", "test": "Cell cycle profile (Hoechst 33342 flow cytometry)", "format": "cell-based, H. sapiens", "details": "24 h", "description": "For cell cycle experiments, 500,000 cells in exponential growth phase were incubated in pre-warmed media containing 10 μg/mL Hoechst 33342 during 45 min in incubator (37 °C in 5% CO2). After wash, cells were resuspended in cold media and recorded on BD FACSCelesta cytometer at low flow rate and analyzed with FlowJo v10 (Tree Star)."}}, "note": "Several values for one entry are separate records, joined by “and”; a condition that tells them apart may be missing. Identical values can stand only once."}
{"smiles": "CN(C)c1ccc(CC(=O)Nc2ncc(SCc3cccnc3)s2)cc1", "note": "[S656]", "values": [{"measurement": "log2FC CCNK", "setting": "[1]", "value": -7.264}, {"measurement": "log2FC GNL1", "setting": "[1]", "value": -6.619}, {"measurement": "log2FC PM34", "setting": "[1]", "value": -4.278}, {"measurement": "log2FC PMYT1", "setting": "[1]", "value": -4.723}, {"measurement": "log2FC RIOK2", "setting": "[1]", "value": -4.751}, {"measurement": "percentage of cells in G1", "setting": "[2]; S656 1uM", "value": "50.8% and 63.1% and 58.6%"}, {"measurement": "percentage of cells in G2/M", "setting": "[2]; S656 1uM", "value": "26.6% and 23.9% and 22.5%"}, {"measurement": "percentage of cells in S", "setting": "[2]; S656 1uM", "value": "21.5% and 12.1% and 18.1%"}, {"measurement": "percentage of cells in G1", "setting": "[2]; S656 3uM", "value": "69.1% and 60.5% and 65.7%"}, {"measurement": "percentage of cells in G2/M", "setting": "[2]; S656 3uM", "value": "17.7% and 29.1% and 24.3%"}, {"measurement": "percentage of cells in S", "setting": "[2]; S656 3uM", "value": "12% and 9.62% and 8.06%"}]}
